Test systems include SF-268 CNS; A549 NSCLC; OVCAR-3 ovarian; MCF7 breast; HCT-15 colon; NCI-H460 lung; DU-145 prostate; M14 melanoma; NCI-H226 lung; UACC-62 melanoma.
What all share (experiment): DTP human tumour cell line panel, 48 h

SMILES strings stand for the structures.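 In this assay, cells in 96-well plates receive the compound at five concentrations for 48 hours. Endpoints are linearly interpolated between the surrounding concentrations. TGI: total growth inhibition.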

What is called TGI is the concentration giving total growth inhibition. A low value points to more potent growth arrest.

On to `CC(C)(C)C(=O)C(C#N)C(=O)C(C)(C)C`, for which the TGI with SF-268 CNS, in the experiment on A549 NSCLC, in the experiment with OVCAR-3 ovarian, with MCF7 breast, in the experiment on HCT-15 colon and in the experiment with NCI-H460 lung was greater than 100 µM throughout. Moreover, the total growth inhibition concentration (TGI) in the experiment with DU-145 prostate, in the experiment on M14 melanoma and in the experiment with NCI-H226 lung was greater than 100 µM throughout.

Consider `CN1CCN(c2nc3c(c(=O)n(C)c(=O)n3C)n2C)CC1`, for which the TGI in the experiment on SF-268 CNS, in the experiment with A549 NSCLC, in the experiment on OVCAR-3 ovarian, in the experiment on UACC-62 melanoma, in the experiment with MCF7 breast and in the experiment on HCT-15 colon was greater than 100 µM throughout. The TGI in the experiment with NCI-H460 lung, in the experiment with DU-145 prostate, in the experiment on M14 melanoma and in the experiment with NCI-H226 lung was greater than 100 µM each time.

Take `CCN1CCc2sc3[nH]c(=S)n(C)c(=O)c3c2C1`: the total growth inhibition concentration (TGI) in the experiment with SF-268 CNS, in the experiment with A549 NSCLC, with OVCAR-3 ovarian, in the experiment with UACC-62 melanoma, in the experiment with MCF7 breast and in the experiment with HCT-15 colon was greater than 100 µM in each case. The TGI with NCI-H460 lung, with DU-145 prostate, with M14 melanoma and in the experiment on NCI-H226 lung was greater than 100 µM throughout.

On to `COc1cc2c(cc1C)NC(=O)/C2=C/c1c(Cl)n(C)c2ccccc12`, for which the TGI in the experiment on SF-268 CNS turned out to be 16.2 µM; in the experiment on A549 NSCLC, 42 µM; in the experiment with OVCAR-3 ovarian, 15.3 µM; with UACC-62 melanoma it was 26.8 µM; in the experiment on MCF7 breast it was 25.7 µM; with HCT-15 colon, 20.5 µM. Moreover, the TGI in the experiment on NCI-H460 lung was determined as 29.1 µM; in the experiment on DU-145 prostate it was 23.6 µM; with M14 melanoma it was 48.1 µM; in the experiment on NCI-H226 lung, 27.2 µM.

Consider `COc1ccc(N=Nc2ccc3oc(=O)c(C(=O)Nc4ccc(OC)cc4)cc3c2)cc1`, for which the TGI in the experiment on SF-268 CNS is 48.8 µM; in the experiment on A549 NSCLC, greater than 100 µM; in the experiment with OVCAR-3 ovarian, 46.6 µM; in the experiment with MCF7 breast, 38 µM; in the experiment with HCT-15 colon, 45.2 µM; in the experiment on NCI-H460 lung, 79.4 µM. Also, the TGI in the experiment on DU-145 prostate worked out at 53.9 µM; with M14 melanoma, 43.5 µM; with NCI-H226 lung, 32.8 µM.

As to `CCO/C=N/C1=C(C#N)C(c2ccc(OC)c(OC)c2)c2c(-c3ccccc3)nn(-c3ccccc3)c2O1` (stereo not drawn), the TGI with SF-268 CNS turned out to be 61.7 µM; in the experiment on A549 NSCLC, 40.5 µM; with OVCAR-3 ovarian, 77.1 µM; in the experiment on UACC-62 melanoma it was 27.6 µM; in the experiment on MCF7 breast, 53.1 µM; with HCT-15 colon it was 18 µM. For the same compound, the TGI in the experiment on NCI-H460 lung is greater than 100 µM; in the experiment with DU-145 prostate, 28.7 µM; in the experiment on M14 melanoma, 60 µM; in the experiment with NCI-H226 lung it was 32.9 µM.

As for `c1ccc(C2(c3cc4ccccc4[nH]3)OCCO2)cc1`, the TGI in the experiment with SF-268 CNS, in the experiment on A549 NSCLC, with OVCAR-3 ovarian, with UACC-62 melanoma, with MCF7 breast and in the experiment on HCT-15 colon was greater than 100 µM in each case. For the same compound, the TGI with NCI-H460 lung, in the experiment on DU-145 prostate, in the experiment with M14 melanoma and in the experiment with NCI-H226 lung was greater than 100 µM each time.

With `C=CCn1c(=O)c(-c2ccccc2)c(O)c2ccccc21`, the TGI with SF-268 CNS, with A549 NSCLC, in the experiment with OVCAR-3 ovarian, with MCF7 breast, in the experiment on HCT-15 colon and in the experiment on NCI-H460 lung was greater than 100 µM in each case. Further, the TGI with DU-145 prostate and in the experiment with NCI-H226 lung was greater than 100 µM in each case.

On to `N#Cc1ccc(/C=C2\Cc3ccccc3C2=O)cc1`, for which the TGI with SF-268 CNS, in the experiment with A549 NSCLC, in the experiment on OVCAR-3 ovarian, in the experiment with UACC-62 melanoma, with MCF7 breast and in the experiment on HCT-15 colon was greater than 100 µM throughout. The TGI in the experiment with NCI-H460 lung, in the experiment with DU-145 prostate, in the experiment with M14 melanoma and in the experiment with NCI-H226 lung was greater than 100 µM throughout.

Take `OB1OCc2ccccc21`: the TGI in the experiment on SF-268 CNS is greater than 100 µM; in the experiment on A549 NSCLC, greater than 100 µM; in the experiment with OVCAR-3 ovarian, greater than 100 µM; with UACC-62 melanoma it was greater than 100 µM; with MCF7 breast it was 82.1 µM; in the experiment on HCT-15 colon, greater than 100 µM. Besides, the TGI with NCI-H460 lung, in the experiment on DU-145 prostate, in the experiment on M14 melanoma and in the experiment with NCI-H226 lung was greater than 100 µM in each case.

With `O=S(=O)(CC#CCS(=O)(=O)c1ccccc1)c1ccccc1`, the TGI was 12.5 µM in the experiment on SF-268 CNS; 37.5 µM in the experiment on A549 NSCLC; 2.91 µM in the experiment with OVCAR-3 ovarian; 11.5 µM with UACC-62 melanoma; 6.7 µM in the experiment on MCF7 breast; 4 µM with HCT-15 colon. Also, the TGI is 38.9 µM in the experiment with NCI-H460 lung, 17.4 µM in the experiment on DU-145 prostate, 4.36 µM in the experiment on M14 melanoma and 34.7 µM in the experiment with NCI-H226 lung.

Take `COC(=O)C1(C(=O)OC)CC2=C(S(=O)(=O)c3ccccc3)C[C@@H](C#N)[C@H]2C1`: the TGI in the experiment on SF-268 CNS was greater than 100 µM; in the experiment on A549 NSCLC it was greater than 100 µM; in the experiment on OVCAR-3 ovarian it was 75.6 µM; in the experiment on MCF7 breast it was greater than 100 µM; in the experiment on HCT-15 colon, greater than 100 µM; with NCI-H460 lung, greater than 100 µM. The TGI in the experiment on DU-145 prostate, in the experiment on M14 melanoma and in the experiment with NCI-H226 lung was greater than 100 µM throughout.

For the compound `COC(=O)[C@H]1ON2O[C@H](OC3CCCC[C@@H]3c3ccccc3)C[C@@H]3CC[C@H]1[C@@]32C` (stereo partly drawn), the TGI with SF-268 CNS, in the experiment with A549 NSCLC, with UACC-62 melanoma, in the experiment on MCF7 breast, with HCT-15 colon and with NCI-H460 lung was greater than 100 µM in each case. For the same compound, the total growth inhibition concentration (TGI) in the experiment with DU-145 prostate, with M14 melanoma and with NCI-H226 lung was greater than 100 µM each time.

`O=C1c2ccccc2C(=O)c2c1c1cc(O)ccc1n2Cc1ccc(Cl)cc1Cl`: the TGI with SF-268 CNS was 29.7 µM; in the experiment on A549 NSCLC, 13.3 µM; with UACC-62 melanoma, 21.8 µM; in the experiment on MCF7 breast, 16.5 µM; with HCT-15 colon, 23.3 µM; in the experiment on NCI-H460 lung, 11.8 µM. The TGI with DU-145 prostate is greater than 100 µM; with M14 melanoma, 46.6 µM; in the experiment with NCI-H226 lung, 31.1 µM.
